# Reference: ChEMBL document CHEMBL3885861, “Open TG-GATES”
# Species: Rattus norvegicus
# Assay: Open TG-GATES - Regimen: Daily Repeat
# Assay type: toxicity, organism-based, Sprague-Dawley
# Parameters: regimen Daily Repeat, gender Male, age 6 weeks
# Settings: in vivo, iv, 2 mg/kg, route intravenous injection, dose level Low; for APTT / Bas / Eos / Fbg / Hb / Ht / Lym / MCH / MCHC / MCV / Mono / Neu / PT / Plat / RBC / Ret / WBC: tissue Blood; for KIDNEY_L / KIDNEY_R / KIDNEY_TOTAL: tissue Kidney; for LIVER: tissue Liver; for A/G / ALP / ALT / AST / BUN / CRE / Ca / Cl / DBIL / GLC / IP / K / LDH / Na / PL / RALB / TBIL / TC / TG / TP / gamma-GTP: tissue Plasma
smiles,measurement,setting,value
NCCBr [BROMOETHANAMINE],TERMINAL_BW,"72 h, time 3 day",236.2 g
same,APTT,"72 h, time 3 day",22.5 s
same,Bas,"72 h, time 3 day",0%
same,Eos,"72 h, time 3 day",1%
same,Fbg,"72 h, time 3 day",280.4 mg/dL
same,Hb,"72 h, time 3 day",13.2 g/dL
same,Ht,"72 h, time 3 day",38.3%
same,Lym,"72 h, time 3 day",83.2%
same,MCH,"72 h, time 3 day",21.2 pg
same,MCHC,"72 h, time 3 day",34.4%
same,MCV,"72 h, time 3 day",61.6 fL
same,Mono,"72 h, time 3 day",2.8%
same,Neu,"72 h, time 3 day",12%
same,PT,"72 h, time 3 day",16.2 s
same,Plat,"72 h, time 3 day",119.2 x10_4/uL
same,RBC,"72 h, time 3 day",620.8 x10_4/ul
same,Ret,"72 h, time 3 day",4.7%
same,WBC,"72 h, time 3 day",80.2 x10_2/uL
same,KIDNEY_L,"72 h, time 3 day",1 g
same,KIDNEY_R,"72 h, time 3 day",1 g
same,KIDNEY_TOTAL,"72 h, time 3 day",2 g
same,LIVER,"72 h, time 3 day",11.1 g
same,A/G,"72 h, time 3 day",1.3
same,ALP,"72 h, time 3 day",1553.4 IU/L
same,ALT,"72 h, time 3 day",39.6 IU/L
same,AST,"72 h, time 3 day",68.4 IU/L
same,BUN,"72 h, time 3 day",16.2 mg/dL
same,CRE,"72 h, time 3 day",0.2 mg/dL
same,Ca,"72 h, time 3 day",10.8 mg/dL
same,Cl,"72 h, time 3 day",106.4 meq/L
same,DBIL,"72 h, time 3 day",0 mg/dL
same,GLC,"72 h, time 3 day",178.6 mg/dL
same,IP,"72 h, time 3 day",7.2 mg/dL
same,K,"72 h, time 3 day",4.6 meq/L
same,LDH,"72 h, time 3 day",195.6 IU/L
same,Na,"72 h, time 3 day",141.8 meq/L
same,PL,"72 h, time 3 day",143.4 mg/dL
same,RALB,"72 h, time 3 day",3.1 g/dL
same,TBIL,"72 h, time 3 day",0.006 mg/dL
same,TC,"72 h, time 3 day",73.6 mg/dL
same,TG,"72 h, time 3 day",113 mg/dL
same,TP,"72 h, time 3 day",5.6 g/dL
same,gamma-GTP,"72 h, time 3 day",2 IU/L
same,TERMINAL_BW,"[…], time 7 day",254.2 g
same,TERMINAL_BW,"[…], time 14 day",302.2 g
same,TERMINAL_BW,"[…], time 28 day",366.5 g
same,APTT,"[…], time 7 day",22.7 s
same,Bas,"[…], time 7 day",0%
same,Eos,"[…], time 7 day",0.8%
same,Fbg,"[…], time 7 day",278.8 mg/dL
same,Hb,"[…], time 7 day",13.5 g/dL
same,Ht,"[…], time 7 day",39.3%
same,Lym,"[…], time 7 day",80.6%
same,MCH,"[…], time 7 day",21 pg
same,MCHC,"[…], time 7 day",34.4%
same,MCV,"[…], time 7 day",61 fL
same,Mono,"[…], time 7 day",2.8%
same,Neu,"[…], time 7 day",15%
same,PT,"[…], time 7 day",15.8 s
same,Plat,"[…], time 7 day",116.6 x10_4/uL
same,RBC,"[…], time 7 day",644 x10_4/ul
same,Ret,"[…], time 7 day",3.9%
same,WBC,"[…], time 7 day",126.7 x10_2/uL
same,APTT,"[…], time 14 day",23 s
same,Bas,"[…], time 14 day",0%
same,Eos,"[…], time 14 day",1%
same,Fbg,"[…], time 14 day",310.8 mg/dL
same,Hb,"[…], time 14 day",14.1 g/dL
same,Ht,"[…], time 14 day",40.3%
same,Lym,"[…], time 14 day",84.8%
same,MCH,"[…], time 14 day",20.5 pg
same,MCHC,"[…], time 14 day",35%
same,MCV,"[…], time 14 day",58.7 fL
same,Mono,"[…], time 14 day",2.2%
same,Neu,"[…], time 14 day",11.4%
same,PT,"[…], time 14 day",15.8 s
same,Plat,"[…], time 14 day",116.5 x10_4/uL
same,RBC,"[…], time 14 day",686.6 x10_4/ul
same,Ret,"[…], time 14 day",3.3%
same,WBC,"[…], time 14 day",104.7 x10_2/uL
same,APTT,"[…], time 28 day",24.7 s
same,Bas,"[…], time 28 day",0%
same,Eos,"[…], time 28 day",1%
same,Fbg,"[…], time 28 day",305.8 mg/dL
same,Hb,"[…], time 28 day",15.7 g/dL
same,Ht,"[…], time 28 day",42.4%
same,Lym,"[…], time 28 day",85.4%
same,MCH,"[…], time 28 day",20.4 pg
same,MCHC,"[…], time 28 day",37.1%
same,MCV,"[…], time 28 day",54.9 fL
same,Mono,"[…], time 28 day",1.4%
same,Neu,"[…], time 28 day",10.6%
same,PT,"[…], time 28 day",16.4 s
same,Plat,"[…], time 28 day",110.2 x10_4/uL
same,RBC,"[…], time 28 day",772.8 x10_4/ul
same,Ret,"[…], time 28 day",1.9%
same,WBC,"[…], time 28 day",107.8 x10_2/uL
same,KIDNEY_L,"[…], time 7 day",1.1 g
same,KIDNEY_R,"[…], time 7 day",1.1 g
same,KIDNEY_TOTAL,"[…], time 7 day",2.2 g
same,KIDNEY_L,"[…], time 14 day",1.2 g
same,KIDNEY_R,"[…], time 14 day",1.2 g
same,KIDNEY_TOTAL,"[…], time 14 day",2.4 g
same,KIDNEY_L,"[…], time 28 day",1.4 g
same,KIDNEY_R,"[…], time 28 day",1.4 g
same,KIDNEY_TOTAL,"[…], time 28 day",2.8 g
same,LIVER,"[…], time 7 day",11.6 g
same,LIVER,"[…], time 14 day",13.5 g
same,LIVER,"[…], time 28 day",15 g
same,A/G,"[…], time 7 day",1.2
same,ALP,"[…], time 7 day",1420.8 IU/L
same,ALT,"[…], time 7 day",36.2 IU/L
same,AST,"[…], time 7 day",64 IU/L
same,BUN,"[…], time 7 day",16.2 mg/dL
same,CRE,"[…], time 7 day",0.2 mg/dL
same,Ca,"[…], time 7 day",10.7 mg/dL
same,Cl,"[…], time 7 day",105.8 meq/L
same,DBIL,"[…], time 7 day",0 mg/dL
same,GLC,"[…], time 7 day",181 mg/dL
same,IP,"[…], time 7 day",7 mg/dL
same,K,"[…], time 7 day",4.6 meq/L
same,LDH,"[…], time 7 day",158.8 IU/L
same,Na,"[…], time 7 day",140.8 meq/L
same,PL,"[…], time 7 day",141 mg/dL
same,RALB,"[…], time 7 day",2.9 g/dL
same,TBIL,"[…], time 7 day",0.01 mg/dL
same,TC,"[…], time 7 day",75.2 mg/dL
same,TG,"[…], time 7 day",93 mg/dL
same,TP,"[…], time 7 day",5.4 g/dL
same,gamma-GTP,"[…], time 7 day",2 IU/L
same,A/G,"[…], time 14 day",1.1
same,ALP,"[…], time 14 day",1559.2 IU/L
same,ALT,"[…], time 14 day",40.6 IU/L
same,AST,"[…], time 14 day",67.6 IU/L
same,BUN,"[…], time 14 day",17.6 mg/dL
same,CRE,"[…], time 14 day",0.2 mg/dL
same,Ca,"[…], time 14 day",10.9 mg/dL
same,Cl,"[…], time 14 day",107 meq/L
same,DBIL,"[…], time 14 day",0 mg/dL
same,GLC,"[…], time 14 day",184 mg/dL
same,IP,"[…], time 14 day",7.1 mg/dL
same,K,"[…], time 14 day",4.3 meq/L
same,LDH,"[…], time 14 day",168.6 IU/L
same,Na,"[…], time 14 day",144.4 meq/L
same,PL,"[…], time 14 day",149 mg/dL
same,RALB,"[…], time 14 day",3 g/dL
same,TBIL,"[…], time 14 day",0 mg/dL
same,TC,"[…], time 14 day",75.4 mg/dL
same,TG,"[…], time 14 day",123 mg/dL
same,TP,"[…], time 14 day",5.7 g/dL
same,gamma-GTP,"[…], time 14 day",2.6 IU/L
same,A/G,"[…], time 28 day",1.1
same,ALP,"[…], time 28 day",1213.2 IU/L
same,ALT,"[…], time 28 day",40.8 IU/L
same,AST,"[…], time 28 day",66 IU/L
same,BUN,"[…], time 28 day",18.4 mg/dL
same,CRE,"[…], time 28 day",0.2 mg/dL
same,Ca,"[…], time 28 day",10.4 mg/dL
same,Cl,"[…], time 28 day",105.6 meq/L
same,DBIL,"[…], time 28 day",0 mg/dL
same,GLC,"[…], time 28 day",188.6 mg/dL
same,IP,"[…], time 28 day",6.6 mg/dL
same,K,"[…], time 28 day",4.1 meq/L
same,LDH,"[…], time 28 day",123 IU/L
same,Na,"[…], time 28 day",145.8 meq/L
same,PL,"[…], time 28 day",141.8 mg/dL
same,RALB,"[…], time 28 day",3.2 g/dL
same,TBIL,"[…], time 28 day",0.01 mg/dL
same,TC,"[…], time 28 day",67.4 mg/dL
same,TG,"[…], time 28 day",133.8 mg/dL
same,TP,"[…], time 28 day",6 g/dL
same,gamma-GTP,"[…], time 28 day",3 IU/L
